System: free cholesterol absorption
Assay: short term hamster model tracking a bolus of gavaged radiolabeled cholesterol
Type: in vivo, Male Golden Syrian hamsters
Source text: To follow the movement of lipids across the intestinal wall leading to its subsequent appearance in the lymph, blood and liver, a short term hamster model which tracked a bolus of gavaged radiolabeled lipid was used. Free cholesterol absorption was examined in this hamster model to explore whether the cholesterol absorption inhibitor compound of Formula (XII): […]
Male Golden Syrian hamsters were fed a diet containing 0.5% cholesterol overnight and divided into groups of 5 animals. […] Two hours later, blood and liver samples were collected from each hamster. The blood was centrifuged for 20 minutes at 3000 rpm and the plasma was removed. Aliquots of the plasma and liver were analyzed for [^14C] radioactivity. Radioactive content was determined using a Beckman LSC (liquid […] counter).

[1] = hamsters fed 0.5% cholesterol diet, gavage 1 h before [14C]-cholesterol, samples two hours later, Compound XII 3 mg/kg, cholestyramine 1 g/kg
[2] = hamsters fed 0.5% cholesterol diet, samples two hours after [14C]-cholesterol, Compound XII 3 mg/kg, cholestyramine 1 g/kg
[3] = specified dosage (Compound XII 3 mg/kg, cholestyramine 1 g/kg)

COc1ccc([C@@H]2[C@@H](CCCc3ccccc3)C(=O)N2c2ccc(OC)cc2)cc1 [Compound XII]
Liver [14C]-cholesterol (DPM/gram of liver) [1]: 3755 ± 923 DPM/gram of liver | Plasma [14C]-cholesterol (Decays Per Minute (DPM)/milliter of plasma) [1]: 1438 ± 455 DPM/milliter of plasma | Liver [14C]-cholesterol, change versus Control (in brackets) [2]: −53% | Plasma [14C]-cholesterol, change versus Control (in brackets) [2]: −71% | reduction of liver (hepatic) [14C]-cholesterol levels [3]: 53% | reduction of plasma [14C]-cholesterol levels [3]: 71%
